Patent EP0602465A1, “Use of CN substituted benzimidazoles” (BAYER AG, priority 1992, dated 1994)

Key:
Assay in all cases: Coccidiosis in chickens: oocyst excretion in faeces (McMaster chamber)
Assay type in all cases: in vivo
Conditions in all cases: 3 days before until 8 days after infection, chicks 9 to 11 days old, 40 000 sporulated oocysts, 100 % = no effect, 0 % = full effect
E.acervulina = tested on: E.acervulina
E. maxima = tested on: E. maxima
E. tenella = tested on: E. tenella

Row | SMILES | E.acervulina Oocystenausscheidung in % im Vergleich zur unbehandelten infizierten Kontrolle (E.acervulina; Dosis 100 ppm in feed) | E.acervulina Oocystenausscheidung in % im Vergleich zur unbehandelten infizierten Kontrolle (E.acervulina; Dosis 250 ppm in feed) | E. maxima Oocytenausscheidung in % im Vergleich zur unbehandelten infizierten Kontrolle (E. maxima; Dosis 100 ppm in feed) | E. maxima Oocytenausscheidung in % im Vergleich zur unbehandelten infizierten Kontrolle (E. maxima; Dosis 250 ppm in feed) | E. tenella (E. tenella; Dosis 100 ppm in feed) | E. tenella (E. tenella; Dosis 250 ppm in feed)
1 | CCCCN(Cn1c(C#N)nc2c(Br)cc(C(F)(F)F)cc21)C(=O)OC [Beispiel 37] | 28% | 0,5% | 26% | 0% | 32% | 0%
2 | CC(C)OC(=O)N(Cc1ccccc1)Cn1c(C#N)nc2c(Br)cc(C(F)(F)F)cc21 [Beispiel 57] | 38% | 0,01% | 5,3% | 0% | 93% | 0%
